Source: US9302999B2, “Substituted triazoles as herbicides” (E. I. DU PONT DE NEMOURS AND COMPANY, priority 2012, dated 2016)

How the values were obtained:
Assay type in all cases: in vivo
[1] = tested on: bromegrass, downy (downy bromegrass, Bromus tectorum); experiment: Test C pre-/postemergence: bromegrass, downy
From the text: (§1) Seeds of plant species selected from blackgrass (Alopecurus myosuroides), bromegrass, downy (downy bromegrass, Bromus tectorum), foxtail, green (green foxtail, Setaria viridis), ryegrass, Italian (Italian ryegrass, Lolium multiflorum), winter wheat (Triticum aestivum), wild oat (Avena fatua), galium (catchweed bedstraw, Galium aparine), bermudagrass (Cynodon dactylon), surinam grass (Brachiaria decumbens), cocklebur (common cocklebur, Xanthium strumarium), corn (Zea mays), large crabgrass (Digitaria sanguinalis), woolly cupgrass (Eriochloa villosa), foxtail, giant (giant foxtail, Setaria faberii), goosegrass (Eleusine indica), johnsongrass (Sorghum halepense), kochia (Kochia scoparia), lambsquarters (Chenopodium album), morningglory (Ipomoea coccinea), nightshade (eastern black nightshade, Solanum ptycanthum), nutsedge, yellow (yellow nutsedge, Cyperus esculentus), pigweed (Amaranthus retroflexus), ragweed (common ragweed, Ambrosia elation), soybean (Glycine max), common (oilseed) sunflower (Helianthus annuus), Russian thistle (Salsola kali) and velvetleaf (Abutilon theophrasti) were planted into a blend of loam soil and sand and treated preemergence with test chemicals formulated in a non-phytotoxic solvent mixture which included a surfactant.
(§2) At the same time, plants selected from these crop and weed species and also barley (winter barley, Hordeum vulgare), canarygrass (Phalaris minor), chickweed (common chickweed, Stellaria media) windgrass (Apera spica-venti) and deadnettle (henbit deadnettle, Lamium amplexicaule) were planted in pots containing Redi-Earth® planting medium (Scotts Company, 14111 Scottslawn Road, Marysville, Ohio 43041) comprising spaghnum peat moss, vermiculite, wetting agent and starter nutrients and treated with postemergence applications of test chemicals formulated in the same manner. Plants ranged in height from 2 to 18 cm (1- to 4-leaf stage) for postemergence treatments.
(§3) Treated plants and controls were maintained in a greenhouse for 13 to 15 days, after which time all species were compared to controls and visually evaluated. Plant response ratings, summarized in Table C, are based on a scale of 0 to 100 where 0 is no effect and 100 is complete control. A dash (-) response means no test result.

[2] = tested on: cocklebur (common cocklebur, Xanthium strumarium); experiment: Test C pre-/postemergence: cocklebur
From the text: as §1, §2, §3

[3] = tested on: woolly cupgrass (Eriochloa villosa); experiment: Test C pre-/postemergence: woolly cupgrass
From the text: as §1, §2, §3

[4] = tested on: bromegrass, downy (downy bromegrass, Bromus tectorum); experiment: Test D pre-/postemergence: bromegrass, downy
From the text: (§4) Seeds of plant species selected from bluegrass (annual bluegrass, Poa annua), blackgrass (Alopecurus myosuroides), canarygrass (Phalaris minor), chickweed (common chickweed, Stellaria media), galium (catchweed bedstraw, Galium aparine), bromegrass, downy (downy bromegrass, Bromus tectorum), field poppy (Papaver rhoeas), field violet (Viola arvensis), foxtail, green (green foxtail, Setaria viridis), deadnettle (henbit deadnettle, Lamium amplexicaule), ryegrass, Italian (Italian ryegrass, Lolium multiflorum), kochia (Kochia scoparia), lambsquarters (Chenopodium album), oilseed rape (Brassica napus), pigweed (Amaranthus retroflexus), Russian thistle (Salsola iberica), chamomile (scentless chamomile, Matricaria inodora), speedwell (bird's-eye speedwell, Veronica persica), barley, spring (spring barley, Hordeum vulgare), wheat, spring (spring wheat, Triticum aestivum), buckwheat, wild (wild buckwheat, Polygonum convolvulus), mustard, wild (wild mustard, Sinapis arvensis), oat, wild (wild oat, Avena fatua), radish, wild (wild radish, Raphanus raphanistrum), windgrass (Apera spica-venti), barley, winter (winter barley, Hordeum vulgare), and wheat, winter (winter wheat, Triticum aestivum) were planted into a silt loam soil and treated preemergence with test chemicals formulated in a non-phytotoxic solvent mixture which included a surfactant. At the same time, these same crop and weed species were planted in pots containing the planting medium comprising spaghnum peat moss, vermiculite, wetting agent and starter nutrients and treated with postemergence applications of the test chemicals formulated in the same manner. Plants ranged in height from 2 to 18 cm (1- to 4-leaf stage).
as §3, with “controlled growth environment” for “greenhouse”, “14” for “13”, “21 days” for “15 days,”, “D,” for “C,”

[5] = tested on: speedwell (bird's-eye speedwell, Veronica persica); experiment: Test D pre-/postemergence: speedwell
From the text: as §4
as §3, with “controlled growth environment” for “greenhouse”, “14” for “13”, “21 days” for “15 days,”, “D,” for “C,”

[6] = tested on: buckwheat, wild (wild buckwheat, Polygonum convolvulus); experiment: Test D pre-/postemergence: buckwheat, wild
From the text: as §4
as §3, with “controlled growth environment” for “greenhouse”, “14” for “13”, “21 days” for “15 days,”, “D,” for “C,”

[7] = tested on: nightshade (eastern black nightshade, Solanum ptycanthum); experiment: Test C pre-/postemergence: nightshade; settings: Preemergence
From the text: as §1, §2, §3

rice (Oryza sativa) = experiment: Test B flooded paddy: rice; settings: Flood; 250 g ai/ha; applied to paddy water at 2-leaf stage; visually evaluated after 13 to 15 days
In short: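 Paddy-water application: seedlings at 2-leaf stage, flood depth 3 cm maintained for the test duration. Evaluation after 13–15 days in the greenhouse by eye relative to controls; 0–100 scale.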

[8] = Postemergence, 31 g ai/ha, scale 0 to 100 (0 no effect, 100 complete control)
[9] = Postemergence, 62 g ai/ha, scale 0 to 100 (0 no effect, 100 complete control)
[10] = Postemergence, 125 g ai/ha, scale 0 to 100, 0 no effect, 100 complete control
[11] = Postemergence, 250 g ai/ha, scale 0 to 100
[12] = Preemergence, 31 g ai/ha, scale of 0 to 100, 0 is no effect, 100 is complete control
[13] = Preemergence, 62 g ai/ha, scale 0 to 100, 0 no effect, 100 complete control
[14] = Preemergence, 125 g ai/ha, scale 0 to 100, 0 no effect, 100 complete control
[15] = Preemergence, 250 g ai/ha, scale 0 to 100, 0 no effect, 100 complete control
[16] = Postemergence, 250 g ai/ha, scale 0 to 100 (0 no effect, 100 complete control)
[17] = Postemergence, 16 g ai/ha, scale 0 to 100
[18] = Preemergence, 16 g ai/ha, scale 0 to 100 (0 no effect, 100 complete control)
[19] = Preemergence, 31 g ai/ha, scale 0 to 100 (0 no effect, 100 complete control)
[20] = Preemergence, 62 g ai/ha, scale 0 to 100
[21] = Preemergence, 125 g ai/ha, scale 0 to 100
[22] = Preemergence, 250 g ai/ha, scale 0 to 100
[23] = Postemergence, 16 g ai/ha, scale 0 to 100, 0 no effect, 100 complete control

## Cc1nn(-c2ccc(F)cc2)nc1Cc1ccnc(C(F)(F)F)c1 [Compound 16, 4-[[2-(4-fluorophenyl)-5-methyl-2H-1,2,3-triazol-4-yl]methyl]-2-(trifluoromethyl)pyridine]
[1]; [8]
  Plant response rating, Bromegrass, Downy: 15
[1]; [9]
  Plant response rating, Bromegrass, Downy: 15
[1]; [10]
  Plant response rating, Bromegrass, Downy: 25
[1]; [11]
  Plant response rating, Bromegrass, Downy: 25
[1]; [12]
  Plant response rating, Bromegrass, Downy: 5
[1]; [13]
  Plant response rating, Bromegrass, Downy: 10
[1]; [14]
  Plant response rating, Bromegrass, Downy: 50
[1]; [15]
  Plant response rating, Bromegrass, Downy: 100
[2]; [8]
  Plant response rating, Cocklebur: 35
[2]; [9]
  Plant response rating, Cocklebur: 45
[2]; [10]
  Plant response rating, Cocklebur: 45
[2]; [11]
  Plant response rating, Cocklebur: 45
[3]; [8]
  Plant response rating, Cupgrass, Woolly: 5
[3]; [9]
  Plant response rating, Cupgrass, Woolly: 20
[3]; [10]
  Plant response rating, Cupgrass, Woolly: 65
[3]; [11]
  Plant response rating, Cupgrass, Woolly: 75
[4]; [8]
  Plant response rating: Bromegrass, Downy: 10
[4]; [9]
  Plant response rating: Bromegrass, Downy: 20
[4]; [10]
  Plant response rating: Bromegrass, Downy: 40
[4]; [16]
  Plant response rating: Bromegrass, Downy: 50
[4]; [17]
  Plant response rating, Bromegrass, Downy: 0
[4]; [18]
  Plant response rating, Bromegrass, Downy: 0
[4]; [19]
  Plant response rating, Bromegrass, Downy: 20
[4]; [20]
  Plant response rating, Bromegrass, Downy: 25
[4]; [21]
  Plant response rating, Bromegrass, Downy: 25
[4]; [22]
  Plant response rating, Bromegrass, Downy: 40
[5]; [8]
  Plant response rating: Speedwell: 75
[5]; [9]
  Plant response rating: Speedwell: 85
[5]; [10]
  Plant response rating: Speedwell: 95
[5]; [16]
  Plant response rating: Speedwell: 100
[5]; [17]
  Plant response rating, Speedwell: 25
[5]; [19]
  Plant response rating, Speedwell: 20
[5]; [20]
  Plant response rating, Speedwell: 40
[5]; [21]
  Plant response rating, Speedwell: 100
[5]; [22]
  Plant response rating, Speedwell: 100
[6]; [8]
  Plant response rating: Buckwheat, Wild: 0
[6]; [9]
  Plant response rating: Buckwheat, Wild: 10
[6]; [10]
  Plant response rating: Buckwheat, Wild: 20
[6]; [16]
  Plant response rating: Buckwheat, Wild: 50
[6]; [17]
  Plant response rating, Buckwheat, Wild: 0
[6]; [18]
  Plant response rating, Buckwheat, Wild: 0
[6]; [19]
  Plant response rating, Buckwheat, Wild: 0
[6]; [20]
  Plant response rating, Buckwheat, Wild: 0
[6]; [21]
  Plant response rating, Buckwheat, Wild: 0
[6]; [22]
  Plant response rating, Buckwheat, Wild: 20

## Cc1nn(-c2ccc(C(F)(F)F)cc2)nc1Cc1ccnc(C(F)(F)F)c1 [Compound 47, 4-[[5-methyl-2-[4-(trifluoromethyl)phenyl]-2H-1,2,3-triazol-4-yl]methyl]-2-(trifluoromethyl)pyridine]
[1]; [8]
  Plant response rating, Bromegrass, Downy: 10
[1]; [9]
  Plant response rating, Bromegrass, Downy: 30
[1]; [10]
  Plant response rating, Bromegrass, Downy: 50
[1]; [11]
  Plant response rating, Bromegrass, Downy: 65
[1]; [12]
  Plant response rating, Bromegrass, Downy: 15
[1]; [13]
  Plant response rating, Bromegrass, Downy: 40
[1]; [14]
  Plant response rating, Bromegrass, Downy: 90
[1]; [15]
  Plant response rating, Bromegrass, Downy: 100
[2]; [8]
  Plant response rating, Cocklebur: 10
[2]; [9]
  Plant response rating, Cocklebur: 65
[2]; [10]
  Plant response rating, Cocklebur: 70
[2]; [11]
  Plant response rating, Cocklebur: 70
[2]; [12]
  Plant response rating, Cocklebur: 0
[2]; [13]
  Plant response rating, Cocklebur: 0
[2]; [14]
  Plant response rating, Cocklebur: 0
[2]; [15]
  Plant response rating, Cocklebur: 5
[3]; [8]
  Plant response rating, Cupgrass, Woolly: 55
[3]; [9]
  Plant response rating, Cupgrass, Woolly: 65
[3]; [10]
  Plant response rating, Cupgrass, Woolly: 80
[3]; [11]
  Plant response rating, Cupgrass, Woolly: 90
[3]; [12]
  Plant response rating, Cupgrass, Woolly: 45
[3]; Preemergence, 62 g ai/ha, scale of 0 to 100, 0 is no effect, 100 is complete control
  Plant response rating, Cupgrass, Woolly: 80
[3]; [14]
  Plant response rating, Cupgrass, Woolly: 95
[3]; [15]
  Plant response rating, Cupgrass, Woolly: 98
[7]; 31 g ai/ha, scale of 0 to 100, 0 is no effect, 100 is complete control
  Plant response rating, Nightshade: 45
[7]; 62 g ai/ha, scale of 0 to 100, 0 is no effect, 100 is complete control
  Plant response rating, Nightshade: 98
[7]; 125 g ai/ha, scale 0 to 100, 0 no effect, 100 complete control
  Plant response rating, Nightshade: 98
[7]; 250 g ai/ha, scale 0 to 100, 0 no effect, 100 complete control
  Plant response rating, Nightshade: 98

## Cc1nn(-c2ccc(C(F)(F)F)cc2)nc1Cc1cccc(C(F)(F)F)c1 [Compound 124]
[1]; [23]
  Plant response rating, Bromegrass, Downy: 0
[1]; [8]
  Plant response rating, Bromegrass, Downy: 0
[1]; [9]
  Plant response rating, Bromegrass, Downy: 0
[1]; [10]
  Plant response rating, Bromegrass, Downy: 0
[2]; [23]
  Plant response rating, Cocklebur: 10
[2]; [8]
  Plant response rating, Cocklebur: 15
[2]; [9]
  Plant response rating, Cocklebur: 20
[2]; [10]
  Plant response rating, Cocklebur: 55
[3]; [23]
  Plant response rating, Cupgrass, Woolly: 5
[3]; [8]
  Plant response rating, Cupgrass, Woolly: 5
[3]; [9]
  Plant response rating, Cupgrass, Woolly: 10
[3]; [10]
  Plant response rating, Cupgrass, Woolly: 20

## Cc1nn(-c2ccnc(C(F)(F)F)c2)nc1Cc1ccnc(C(F)(F)F)c1 [Compound 137]
Rice (Oryza sativa)
  Plant response rating, Rice (0 to 100 scale, 0 is no effect, 100 is complete control): 40
[1]; [8]
  Plant response rating, Bromegrass, Downy: 10
[1]; [9]
  Plant response rating, Bromegrass, Downy: 30
[1]; [10]
  Plant response rating, Bromegrass, Downy: 60
[1]; [11]
  Plant response rating, Bromegrass, Downy: 85
[2]; [8]
  Plant response rating, Cocklebur: 45
[2]; [9]
  Plant response rating, Cocklebur: 50
[2]; [11]
  Plant response rating, Cocklebur: 60
[3]; [8]
  Plant response rating, Cupgrass, Woolly: 45
[3]; [9]
  Plant response rating, Cupgrass, Woolly: 50
[3]; [10]
  Plant response rating, Cupgrass, Woolly: 55
[3]; [11]
  Plant response rating, Cupgrass, Woolly: 90
[4]; [8]
  Plant response rating: Bromegrass, Downy: 15
[4]; [9]
  Plant response rating: Bromegrass, Downy: 20
[4]; [10]
  Plant response rating: Bromegrass, Downy: 30
[4]; [16]
  Plant response rating: Bromegrass, Downy: 40
[4]; [17]
  Plant response rating, Bromegrass, Downy: 5
[5]; [8]
  Plant response rating: Speedwell: 70
[5]; [9]
  Plant response rating: Speedwell: 85
[5]; [10]
  Plant response rating: Speedwell: 95
[5]; [16]
  Plant response rating: Speedwell: 100
[5]; [17]
  Plant response rating, Speedwell: 70
[6]; [8]
  Plant response rating: Buckwheat, Wild: 30
[6]; [9]
  Plant response rating: Buckwheat, Wild: 65
[6]; [10]
  Plant response rating: Buckwheat, Wild: 65
[6]; [16]
  Plant response rating: Buckwheat, Wild: 80
[6]; [17]
  Plant response rating, Buckwheat, Wild: 30
